Consider two compounds from patent US10238631B2, “Sesquiterpene derivatives and their use in inflammation or cancer treatment” (Academia Sinica, priority 2014, dated 2019).

Where “and” joins values, the source holds several entries; their conditions need not be identical. Equal entries are not always repeated. Where two headings read alike, the source gives them in different places.

One may read the inhibition as the share of the control response that was lost under treatment. One may read the viability as the share of living cells, or the viability signal relative to a control.

Series [1] deals with U-87MG brain cancer cell line. The experiment in a line: MTT cell viability assay, U-87MG. It counts as cell-based. Conditions: Homo sapiens, 24 h. The protocol: (§1) Normal or cancer cells (2×10^3 to 1×10^4 cells/well) were seeded in 96-well plate for overnight and treated with different compounds for 24 h to 72 h. Cells growth were determined by MTT-based colorimetric assays according to. Viability of the test cells treated with vehicle (0.5% DMSO) only was defined as 100% viable. Survival of cells after treatment with DETDs was calculated using the following formula: viable cell number (%)=OD570 (treated cell culture)/OD570 (vehicle control)×100.
(§2) Based on toxicity results of DET and DETDs on different breast cancer and melanoma cell lines, we selected DETD-6, -32, -35 and -39, under the consideration of structure activity relationship for evaluating their suppression effect against other cancer types of cell line with indicated tumor origin in Table 5. […] The cells were treated with compounds for 24 h and then subjected to MTT assays.
In general terms: Tetrazolium dyes change colour on reduction, which living cells bring about.

The test system of a further series is MDA-MB-231 cell invasion. The experiment in a line: Boyden chamber (Matrigel) invasion assay. It counts as cell-based, human. Conditions: 24 h. The protocol: (§3) To test the anti-migratory and anti-invasive effect of DET. DETD-35 and PTX. Boyden chambers assay was carried out. The lower well of the chamber (6.5 mm diameter, […]; Costar. Cambridge, Mass., USA) was added 10% fetal bovine serum (FBS) as a chemoattractant and filled with DMEM culture medium containing vehicle (DMSO, 0.05%), DET (2.5 and 4 μM). DETD-35 (1.25 and 2.5 μM), or PTX (2.5 and 4 μM). MDA-MB-231 cells were placed into the upper chamber (5×10^4 cells per insert) with the medium containing 0.1% FBS. After 24 h incubation at 37° C. in a 5% CO2 atmosphere, non-migrating cells were scraped from the upper surface of the membrane using a cotton swab, and the migrated cells remaining in the well were fixed and stained with DAPI solution (4,6-diamidino-2-phenylindole, 1 μg/ml). The migrating cells were counted in three fields at 20× original magnifications by inverted fluorescence microscopy. To test the anti-invasive effect of the compounds, 8-μm filters were pre-coating with Matrigel (30 μg per filter) and incubated at 37° C. for 2 h, then followed the protocol of migration assay descried about.

The subject of another series is HTB-68 (NRAS mutation). The experiment in a line: MTT cell viability assay, HTB-68 melanoma. It counts as cell-based, human. Particulars: 24 h. The essentials: (§4)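 Overnight-seeded cells (2×10^3–1×10^4/well) → compound 24–72 h → MTT, OD570; % viable = treated/vehicle ×100, vehicle 0.5% DMSO.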
Series [2] has as its system A498 kidney cancer cell line. The experiment in a line: MTT cell viability assay, A498. The series is classed as cell-based. Particulars: Homo sapiens, 24 h. How it is done: as §1, §2
Series [3] concerns M10 normal mammary epithelial cells. The experiment in a line: MTT cell viability assay, M10 normal cells. It counts as cell-based, human. Conditions: 24 h; for IC50: Homo sapiens, Epithelial cell. The essentials: (§5)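 Seed 2×10^3 to 1×10^4 cells/well, overnight. Treat with compounds 24 h to 72 h. Add MTT, read OD570. Express survival relative to 0.5% DMSO vehicle (100%).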
Series [4] deals with A375 human melanoma tumor. The experiment in a line: A375 melanoma xenograft model in NOD/SCID mice. It counts as in vivo, mouse. Conditions: 20 mg/kg i.p.; PLX4032 every day, DET and DETD-35 every two days. How it is done: A375 and A375-R melanoma cells (3×10^6) were injected subcutaneously to the flanks of the six weeks old NOD/SCID mice. One week after the inoculation, the mice were randomized into treated groups (n=8 per group) and the treatments were started. Body weight and tumor volume of the mice were recorded every three days using formula a×b^2×0.5, where a and b represented the larger and smaller tumor diameters.
We used A375 human melanoma xenograft model to evaluate the in vivo bioefficacy of DET. DETD-35, PLX4032 and compound drug combination. […] For single compound or drug treatment group, PLX4032 was administered i.p. every day and DET and DETD-35 were administered i.p. every two days. For combination treatment, PLX4032 was administered every two days while DET and DETD-35 were administered every four days. […] Compound-drug combinational treatments were carried out with alternative administration of DET (20 mg/kg) or DETD-35 (20 mg/kg) and PLX4032 (20 mg/kg) by which DET or DETD-35 and PLX4032 treatment frequency were only half of the single compound or drug administration alone.

The subject of series [5] is MDA-MB-231 (ER−, PR−, Her2−) human breast cancer cells. The experiment in a line: MTT cell viability assay, MDA-MB-231 cells. It counts as cell-based. Conditions: for IC50: Homo sapiens. The gist of the method: as §5
The test system of series [6] is TS/A (ER+, Her2−) murine mammary cancer cells. The experiment in a line: MTT cell viability assay, TS/A cells. It counts as cell-based. Conditions: Mus musculus. The essentials:
as §5

Series [7] concerns SK-N-MC neuroepithelioma line. The experiment in a line: MTT cell viability assay, SK-N-MC. Conditions: Homo sapiens, 24 h. The series is classed as cell-based. The protocol:
as §1, §2

In series [8] the test system is MDA-MB-231 cell migration. The experiment in a line: Boyden chamber migration assay. The series is classed as cell-based, human. Particulars: 24 h; for reduction of cell migration vs vehicle control: higher concentrations (DET 4 μM, DETD-35 2.5 μM, PTX 4 μM); for suppression of cell migration vs vehicle control: lower concentrations (DET 2.5 μM, DETD-35 1.25 μM, PTX 2.5 μM). The protocol:
as §3

Series [9] has as its system KATO III stomach cancer cell line. The experiment in a line: MTT cell viability assay, KATO III. It counts as cell-based. Conditions: Homo sapiens, 24 h. How it is done:
as §1, §2

The test system of another series is MDA-MB-231 cells. The experiment in a line: Combination with gluthathione biosynthesis blockers (BSO, sulfasalazine), MTT. Particulars: for cell viability after pretreatment with BSO or sulfasalazine: 30 h pretreatment, then DET 12 μM or DETD-35 3 μM for 24 h; for combination effect with BSO: BSO at 0.5 μM, 3 μM, and above; for combination effect with sulfasalazine: sulfasalazine at 25 μM, 62 μM, and above.

Another series has as its system A375 (BRAF mutation). The experiment in a line: MTT cell viability assay, A375 melanoma. It counts as cell-based, human. Conditions: MTT. The essentials: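 A375 cells were seeded at 2×10^3 to 1×10^4 per well overnight and then exposed to compounds for 24 h to 72 h. Viability was measured by MTT absorbance at OD570 relative to 0.5% DMSO vehicle (100%), and IC50 was derived from it. Combination with PLX4032 was scored by combination index.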

For series [10], the system named is melanoma cell lines B16-F10, MeWo, A375, A2058, HTB-68. The experiment in a line: MTT cell viability assay, all melanoma cell lines. The series is classed as cell-based. Particulars: 24 h, read-out: IC50 values over all types of melanoma cell lines. The essentials: as §4
[11] abbreviates: MDA-MB-231, 24 h, read-out: IC50 on cell viability, MDA-MB-231 (ER−, PR−, Her2−).
Where [12] appears, read: MDA-MB-231, Table 5, 24 h, read-out: IC50 viability MDA-MB-231 (Breast).
Setting [13] is: 24 h, read-out: IC50 on cell viability, TS/A (ER+, Her2−).
[14] abbreviates: Table 5, 24 h, read-out: IC50 viability TS/A (mouse) (Breast).
The mark [15] stands for this setting: Homo sapiens, A-375, 24 h, 24 h, read-out: IC50 on cell viability, A375 (BRAF mutation).

For `C=C(C)C(=O)O[C@H]1CC2=C[C@@H](C/C(C)=C/[C@H]3OC(=O)C(=C)[C@H]13)OC2=O` [DET, deoxyelephantopin, reference compound], the IC50 in series [1] was 1000 nM; in the series with HTB-68 (NRAS mutation) it was greater than 10000 nM; with HTB-68 (NRAS mutation) (Homo sapiens) it was greater than 10000 nM; in [2] it was 2820 nM; in series [3] it was greater than 7500 nM; in [5] (setting [11]), 14000 nM. The IC50 in [5] (setting [12]) came to 14000 nM; in [6] (setting [13]), 2300 nM; in [6] (setting [14]) it was 2600 nM; in series [7], 510 nM; in series [9], 1470 nM; in the series with A375 (BRAF mutation) (24 h, read-out: IC50 on cell viability, A375 (BRAF mutation)) it was 5900 nM. The IC50 with A375 (BRAF mutation) (setting [15]) was roughly 6000 nM. The “inhibition of cell invasion” value is reported as 76% with MDA-MB-231 cell invasion (higher concentrations (DET 4 μM, DETD-35 2.5 μM, PTX 4 μM)) and 57% in the series with MDA-MB-231 cell invasion (lower concentrations (DET 2.5 μM, DETD-35 1.25 μM, PTX 2.5 μM)). In addition, the “reduction of tumor mass vs tumor control” value in [4] is reported as 47.5%. In [8], the “reduction of cell migration vs vehicle control” value came to 77%. The “suppression of cell migration vs vehicle control” value in series [8] is given as 16%. Further, the “cell viability after pretreatment with BSO or sulfasalazine” value in the series with MDA-MB-231 cells was 1% or undetectable. Also, in the series on MDA-MB-231 cells, the “combination effect with BSO” value is “synergistic effects”. Further, the “cell viability, compound alone” value in the series with MDA-MB-231 cells (DET 12 μM, DETD-35 3 μM, 24 h) is recorded as “around 70%”. In the series with MDA-MB-231 cells, the “combination effect with sulfasalazine” value is “synergistic effects”.

Regarding `C=C1C(=O)O[C@H]2CC3=C[C@@H](C/C(C)=C/[C@@H](OC(=O)Cc4cccc5ccccc45)[C@H]12)OC3=O` [DETD-35], the IC50 in series [1] was 340 nM; in the series with HTB-68 (NRAS mutation) (Homo sapiens), 3900 nM; in series [10] it was 1600 to 9900 nM and 2500 to 6000 nM; in series [2], 790 nM; in series [3], greater than 7500 nM; in series [5] (setting [11]) it was 3500 nM. The IC50 in series [5] (setting [12]) stood at 3500 nM; in series [6] (setting [13]), 1700 nM; in [6] (setting [14]), 1700 nM; in series [7], 260 nM; in [9], 650 nM; in the series with A375 (BRAF mutation) (72 h, read-out: IC50 on A375 cells), 800 nM. Also, the IC50 in the series on A375 (BRAF mutation) (setting [15]) was found to be 2500 nM; in the series on A375 (BRAF mutation) (Homo sapiens, A-375, 72 h, 72 h, read-out: IC50 on A375 cells), 850 nM. Also, the inhibition at 2.5 µM in the series with MDA-MB-231 cell invasion (Homo sapiens, MDA-MB-231, higher concentrations (DET 4 μM, DETD-35 2.5 μM, PTX 4 μM)) turned out to be 80%. In the series on MDA-MB-231 cell invasion (Homo sapiens, MDA-MB-231, lower concentrations (DET 2.5 μM, DETD-35 1.25 μM, PTX 2.5 μM)), at 1.25 µM the inhibition was 64.6%. Also, in series [3], the “IC50 on cell viability, M10 (normal)” value was “no detected toxicity”. In series [4], the “reduction of tumor mass vs tumor control” value amounted to 70.5%. Further, in [5] (24 h), the “IC60 on MDA-MB-231 cells” value worked out at 3320 nM. Besides, in [8], the “reduction of cell migration vs vehicle control” value was determined as 84%. Also, the “suppression of cell migration vs vehicle control” value in [8] amounted to 10%. In the series with MDA-MB-231 cells, the “cell viability after pretreatment with BSO or sulfasalazine” value was 1% or undetectable. For the same compound, in the series with MDA-MB-231 cells, the “combination effect with BSO” value is on record as “synergistic effects”. Moreover, the viability at 3 µM in the series with MDA-MB-231 cells (Homo sapiens, MDA-MB-231, 24 h, read-out: cell viability, compound alone) is roughly 90%. Besides, the “combination effect with sulfasalazine” value in the series with MDA-MB-231 cells was “synergistic effects”.
